# From patent US20080200682A1, “Process of Producing Bleach Boosters” (BASF Aktiengesellschaft, priority 2005, published 2008)
# Structures can show the parent of a compound that is named as a salt.
# Experiments:
# Type in all cases: biochemical
# [1] = molecular target: T1, Termamyl (amylase enzyme) (Bacillus licheniformis, UniProt P06278)
# T1 construct: purchased Novozymes, Denmark
# Duramyl (amylase enzyme) = assay: Organic Catalyst/Enzyme Compatibility Test (alpha amylase activity assay), Duramyl; conditions: (Ac/Ab)x100 for Duramyl; [Peracetic Acid]=5.0 ppm; [organic catalyst]=0.5 ppm; detergent solution, 40° C.
# [2] = test system: Natalase (amylase enzyme); assay: Organic Catalyst/Enzyme Compatibility Test (alpha amylase activity assay), Natalase; conditions: (Ac/Ab)x100 for Natalase; [Peracetic Acid]=5.0 ppm; [organic catalyst]=0.5 ppm; detergent solution, 40° C.
# [3] = test system: Amylase enzymes: Termamyl, Natalase, and Duramyl; assay: Organic Catalyst/Enzyme Compatibility Test, average ECV of the three enzymes; conditions: ECV=(ECVter+ECVdur+ECVnat)/3; [Peracetic Acid]=5.0 ppm; [organic catalyst]=0.5 ppm
# T1 sequence (P06278 30-512): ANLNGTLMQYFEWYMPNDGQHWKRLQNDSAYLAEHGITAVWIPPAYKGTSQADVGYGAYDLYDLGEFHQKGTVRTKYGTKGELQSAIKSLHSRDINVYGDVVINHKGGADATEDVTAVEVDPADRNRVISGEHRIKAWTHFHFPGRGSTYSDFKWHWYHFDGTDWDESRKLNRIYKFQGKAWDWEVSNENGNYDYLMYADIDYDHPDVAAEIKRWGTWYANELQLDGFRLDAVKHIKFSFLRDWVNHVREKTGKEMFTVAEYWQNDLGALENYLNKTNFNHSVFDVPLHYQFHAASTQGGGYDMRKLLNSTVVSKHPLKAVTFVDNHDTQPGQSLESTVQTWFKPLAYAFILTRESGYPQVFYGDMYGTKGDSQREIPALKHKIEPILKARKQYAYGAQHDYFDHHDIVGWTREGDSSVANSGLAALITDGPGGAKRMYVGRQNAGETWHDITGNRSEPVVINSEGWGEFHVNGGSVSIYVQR
Molecule,Enzyme Compatibility Values ECVter [1],Enzyme Compatibility Values ECVdur (Duramyl (amylase enzyme)),Enzyme Compatibility Values ECVnat [2],Enzyme Compatibility Values ECV [3]
"Sulfuric acid mono-[2-(3,4-dihydro-isoquinolin-2-yl)-1-(iso-nonyloxymethyl)-ethyl]ester, internal salt [Entry 6]",86,96,88,90
"CCCCCCC(CCCC)COCC(C[N+]1=Cc2ccccc2CC1)OS(=O)(=O)[O-] (stereo not drawn) [Entry 4, Sulfuric acid mono-[2-(3,4-dihydro-isoquinolin-2-yl)-1-(2-butyl-octyloxymethyl)-ethyl]ester, internal salt]",101,101,102,101
"Sulfuric acid mono-[2-(3,4-dihydro-isoquinolin-2-yl)-1-(iso-tridecyloxymethyl)-ethyl]ester, internal salt [Entry 8]",99,100,101,100
"CCCCC(CC)COCC(C[N+]1=Cc2ccccc2CC1)OS(=O)(=O)[O-] (stereo not drawn) [Entry 2, reference compound]",54,90,57,67
"Sulfuric acid mono-[2-(3,4-dihydro-isoquinolin-2-yl)-1-(iso-decyloxymethyl)-ethyl]ester, internal salt [Entry 7]",98,97,96,97
"CCCCCC(CCC)COCC(C[N+]1=Cc2ccccc2CC1)OS(=O)(=O)[O-] (stereo not drawn) [Entry 3, Sulfuric acid mono-[2-(3,4-dihydro-isoquinolin-2-yl)-1-(2-propylheptyloxymethyl)-ethyl]ester, internal salt]",98,101,99,99
